Measured values from patent US9951049B2, “Pyrazole linked benzimidazole conjugates and a process for preparation thereof” (Council of Scientific & Industrial Reseach, priority 2014, dated 2018).

Columns and labels:
HL-60(TB) = assay: NCI SRB screen, HL-60(TB); type: cell-based; conditions: Homo sapiens, Leukemia, 48 h
MCF7 = assay: NCI SRB screen, MCF7; conditions: Homo sapiens, MCF7, 48 h, read-out: GI50 values
Colon cancer cell lines = assay: NCI SRB screen, Colon panel average; conditions: Homo sapiens, 48 h, read-out: Log10 GI50 (converted)
OVCAR-5 = assay: NCI SRB screen, OVCAR-5; conditions: Homo sapiens, OVCAR-5, 48 h, read-out: GI50 values
MDA-MB-435 = assay: NCI SRB screen, MDA-MB-435 (Breast panel); conditions: Homo sapiens, MDA-MB-435, 48 h, read-out: GI50 values
Leukemia cell lines = assay: NCI SRB screen, Leukemia panel average; conditions: Homo sapiens, 48 h, read-out: Log10 GI50 (converted)
MDA-MB-231/ATCC = assay: NCI SRB screen, MDA-MB-231/ATCC; conditions: Homo sapiens, MDA-MB-231, 48 h, read-out: GI50 values
HCC-2998 = assay: NCI SRB screen, HCC-2998; conditions: Homo sapiens, HCC 2998, 48 h, read-out: GI50 values
HCT-116 = assay: NCI SRB screen, HCT-116; conditions: Homo sapiens, HCT-116, 48 h, read-out: GI50 values
COLO-205 = assay: NCI SRB screen, COLO-205; conditions: Homo sapiens, COLO 205, 48 h, read-out: GI50 values
HT29 = assay: NCI SRB screen, HT29; conditions: Homo sapiens, HT-29, 48 h, read-out: GI50 values
SK-MEL-5 = assay: NCI SRB screen, SK-MEL-5; conditions: Homo sapiens, SK-MEL-5, 48 h, read-out: GI50 values, Melanoma, SK-MEL-5
[1] = system: Prostate cancer cell lines; assay: NCI SRB screen, Prostate panel average; conditions: Homo sapiens, 48 h, read-out: Log10 GI50 (converted)
CNS cancer cell lines = assay: NCI SRB screen, CNS panel average; conditions: Homo sapiens, 48 h, read-out: Log10 GI50 (converted)
TK-10 = assay: NCI SRB screen, TK-10; conditions: Homo sapiens, TK-10, 48 h, read-out: GI50 values
UACC-62 = assay: NCI SRB screen, UACC-62; conditions: Homo sapiens, UACC-62, 48 h, read-out: GI50 values
NCIH322M = assay: NCI SRB screen, NCIH322M; conditions: Homo sapiens, NCI-H322M, 48 h, read-out: GI50 values
[2] = system: Non-small-cell lung cancer cell lines; assay: NCI SRB screen, Non-small-cell lung panel average; conditions: Homo sapiens, 48 h, read-out: Log10 GI50 (converted)
NCI-H23 = assay: NCI SRB screen, NCI-H23; conditions: Homo sapiens, NCI-H23, 48 h, read-out: GI50 values
SNB-75 = assay: NCI SRB screen, SNB-75; conditions: Homo sapiens, SNB-75, 48 h, read-out: GI50 values
SNB-19 = assay: NCI SRB screen, SNB-19; conditions: Homo sapiens, SNB-19, 48 h, read-out: GI50 values
Breast Cancer cell lines = assay: NCI SRB screen, Breast Cancer panel average; conditions: Homo sapiens, 48 h, read-out: Log10 GI50 (converted)
OVCAR-8 = assay: NCI SRB screen, OVCAR-8; conditions: Homo sapiens, OVCAR-8, 48 h, read-out: GI50 values
Renal cancer cell lines = assay: NCI SRB screen, Renal panel average; conditions: Homo sapiens, 48 h, read-out: Log10 GI50 (converted)
SF-268 = assay: NCI SRB screen, SF-268; conditions: Homo sapiens, SF-268, 48 h, read-out: GI50 values
HCT-15 = assay: NCI SRB screen, HCT-15; conditions: Homo sapiens, HCT-15, 48 h, read-out: GI50 values
CCRF-CEM = assay: NCI SRB screen, CCRF-CEM; conditions: Homo sapiens, 48 h, read-out: GI50 values
HS 578T = assay: NCI SRB screen, HS 578T; conditions: Homo sapiens, 48 h, read-out: GI50 values
HOP-62 = assay: NCI SRB screen, HOP-62; conditions: Homo sapiens, HOP-62, 48 h, read-out: GI50 values
SK-OV-3 = assay: NCI SRB screen, SK-OV-3; conditions: Homo sapiens, SK-OV-3, 48 h, read-out: GI50 values
M14 = assay: NCI SRB screen, M14; conditions: Homo sapiens, M14, 48 h, read-out: GI50 values
U251 = assay: NCI SRB screen, U251; conditions: Homo sapiens, U-251, 48 h, read-out: GI50 values
SF-539 = assay: NCI SRB screen, SF-539; conditions: Homo sapiens, 48 h, read-out: GI50 values
MOLT-4 = assay: NCI SRB screen, MOLT-4; conditions: Homo sapiens, MOLT-4, 48 h, read-out: GI50 values

| SMILES | GI50 (HL-60(TB)) [nM] | GI50 (MCF7) [µM] | GI50 (Colon cancer cell lines) [µM] | GI50 (OVCAR-5) [µM] | GI50 (MDA-MB-435) [µM] | GI50 (Leukemia cell lines) [nM] | GI50 (MDA-MB-231/ATCC) [µM] | GI50 (HCC-2998) [µM] | GI50 (HCT-116) [µM] | GI50 (COLO-205) [µM] | GI50 (HT29) [µM] | GI50 (SK-MEL-5) [nM] | GI50 [1] [µM] | GI50 (CNS cancer cell lines) [µM] | GI50 (TK-10) [nM] | GI50 (UACC-62) [µM] | GI50 (NCIH322M) [µM] | GI50 [2] [µM] | GI50 (NCI-H23) [µM] | GI50 (SNB-75) [nM] | further results |
| --- | --- | --- | --- | --- | --- | --- | --- | --- | --- | --- | --- | --- | --- | --- | --- | --- | --- | --- | --- | --- | --- |
| c1ccc2[nH]c(-c3cc(-c4ccc5c(c4)OCO5)n[nH]3)nc2c1 [6g, 2-(3-(benzo[d][1,3]dioxol-5-yl)-1H-pyrazol-5-yl)-1H-benzo[d]imidazole] | 2270 | 3.78 | 4.07 | 1.49 | 3.57 | 2510 | 4.12 | 3.74 | 6.36 | 4.78 | 3.66 | 1530 | 5.13 | 4.27 | 1090 | 3.08 | 6.29 | 4.57 | 4.47 | 1010 | GI50 (SNB-19): 5.92 µM; GI50 (Breast Cancer cell lines): 3.39 µM; GI50 (OVCAR-8): 3.97 µM; GI50 (Renal cancer cell lines): 2.04 µM; GI50 (SF-268): 4.77 µM; GI50 (HCT-15): 3.86 µM; GI50 (CCRF-CEM): 2520 nM; GI50 (HS 578T): 3.8 µM; GI50 (HOP-62): 8.46 µM; GI50 (SK-OV-3): 4980 nM; GI50 (M14): 2.19 µM; GI50 (U251): 2370 nM; GI50 (SF-539): 2710 nM; GI50 (MOLT-4): 2680 nM |
| Fc1ccc2[nH]c(-c3cc(-c4ccc5c(c4)OCO5)n[nH]3)nc2c1 [7g, 2-(3-(benzo[d][1,3]dioxol-5-yl)-1H-pyrazol-5-yl)-5-fluoro-1H-benzo[d]imidazole] | 2740 | 3.53 | 5.37 | 6.44 | 4.14 | 2950 | 2.22 | 5.37 | 4.5 | 8.11 | 5.77 | 1460 | 5.62 | 6.31 | 1300 | 4.77 | 6.88 | 5.37 | 8.84 | 2800 | GI50 (SNB-19): 10 µM; GI50 (Breast Cancer cell lines): 3.63 µM; GI50 (OVCAR-8): 3.43 µM; GI50 (Renal cancer cell lines): 4.57 µM; GI50 (SF-268): 6.05 µM; GI50 (HCT-15): 3.73 µM; GI50 (CCRF-CEM): 2650 nM; GI50 (HS 578T): 9.53 µM; GI50 (HOP-62): 8.54 µM; GI50 (SK-OV-3): 1240 nM; GI50 (M14): 4.17 µM; GI50 (U251): 2780 nM; GI50 (SF-539): 2900 nM; GI50 (MOLT-4): 3140 nM |
| COc1cc(-c2cc(-c3nc4cc(Cl)c(Cl)cc4[nH]3)[nH]n2)cc(OC)c1OC [10f, 5,6-dichloro-2-(3-(3,4,5-trimethoxyphenyl)-1H-pyrazol-5-yl)-1H-benzo[d]imidazole] | 3340 | 2.79 | 3.63 | 7.08 | 3.49 | 2750 | 4.14 | 4.47 | 2.78 | 3.77 | 3.42 | 1560 | 3.02 | 3.55 | 4610 | 1.94 | 3.29 | 2.95 | 3.4 | 3120 | GI50 (SNB-19): 5.47 µM; GI50 (Breast Cancer cell lines): 3.16 µM; GI50 (OVCAR-8): 2.51 µM; GI50 (Renal cancer cell lines): 3.55 µM; GI50 (SF-268): 3.95 µM; GI50 (HCT-15): 2.89 µM; GI50 (CCRF-CEM): 2350 nM; GI50 (HS 578T): 4.53 µM; GI50 (HOP-62): 3.43 µM; GI50 (SK-OV-3): 1730 nM; GI50 (M14): 3.57 µM; GI50 (U251): 2970 nM; GI50 (SF-539): 3280 nM; GI50 (MOLT-4): 2490 nM |
